Test results taken from patent US8273712B2, “Promoting wound healing by administering a prostaglandin E and granulocyte-macrophage colony stimulating factor” (Medical Research Council, priority 2005, dated 2012).

Legend:
[1] = tested on: Male Sprague Dawley rats, 2 cm circular dorsal wounds; assay: Rat model of wound healing; format: in vivo; settings: for Wound area relative to control (significance, in words): day 3 post surgery; for Wound colour observations relative to control: days 3-5; for Consistent brown wound colour scores: days 9 and 10, red indicates a less healed wound than brown
Protocol: Male Sprague Dawley rats weighing between 250-300 grams were used as a wound healing model to assess the effects of PGE and GMCSF. 6 rats per treatment group were analysed to provide adequate data for statistical comparisons between control and treated groups. A total of 24 animals were used (4 groups of 6 rats). The four groups were control, 16,16-dimethyl PGE, GMCSF, and 16,16-dimethyl PGE+GMCSF groups. […] Two wounds were created on each animal, resulting in an “n” of 12 wounds per group.
Following acclimatisation (5-6 days), the rats were given a subcutaneous injection of Glycopyrolate (0.01 mg/kg at 0.02 mg/mL), dose volume 0.5 mL/kg, and anesthetised with an intraperitoneal injection of a Ketamine (40 mg/kg)/Xylazine (5 mg/kg) cocktail at 45 mg/mL (ket) and 5 mg/mL (xy), dose volume 0.88 mL/kg. Adequate depth of anesthesia was assessed by a toe pinch prior to beginning surgery, such that if any movement was noted, the animals were given more anaesthesia. […] Once anesthesia was accomplished, a 6×8 cm area was shaved in the dorsal area. Following shaving, a depilatory agent (Nair) was applied to the shaved area, and allowed to remain on the skin for approximately 5 minutes. After this time, the Nair was gently scraped from the skin with a blunt spatula and any residue was removed by rinsing the skin with deionised, distilled water and wiping with gauze sponges. The shaved area was then surgically prepared with chlorhexidine and alcohol scrub.
The rat was then placed on its abdomen and positioned in such a way that the limbs were relaxed and the spine was straight. […] The inside margins of the T were traced with a Sharpie pen, such that as upside-down “L” appeared on the right side of the rat and an upside-down and backward “L” appeared on the left side of the animal. These designated the cranial border of each wound, approximately 3 cm caudal to the scapular angles, and the medial border of each wound, approximately 0.25 cm from the midline.
To make the wound template, the rim of a cap from a Corning 15 ml conical tube was placed on the area and traced using a sterile surgical marker creating a 2 cm circle within one of the upside-down L's described above. An initial incision was made with a #10 scalpel blade at the medial edge of each circle. The incision was made through the panniculus carnosus into the areolar layer of the subcutaneous loose connective tissue. The excision was continued around the entire perimeter of the circle using forceps and Metzenbaum curved scissors while taking care to avoid damaging the deep fescial layers. The skin was removed to leave a circular wound. Where necessary, hemostasis was achieved by even compression with a sterile gauze pad.
The test agent or vehicle control, was administered at three different sites under the wound bed. Group assignments and dose levels for each treatment were as detailed in Table 8. Dose levels were based on body weight.
The wounds were not covered with any type of dressing. Approximately 30 minutes after recovery (determined by sternal recumbency and normal movement) the animals were given a subcutaneous injection of Buprenorphine (0.1 mg/kg) and transferred to individual cages with elevated stainless steel floors. Additional Buprenorphine was given every 6-8 hours as needed, then for the following 72 hours, 0.05 mg/kg was administered every 6-12 hours as needed.
Animals were anesthetised with isoflurane on days 3, 7, and 10 following surgery and the wounds were measured by caliper for width and length. The width and length measurements were then multiplied to calculate wound area and the mean wound area and standard error of the mean for each treatment determined. To test for any significant difference in wound healing relative to control treatment, a two-way analysis of variance (ANOVA) test was performed on the mean wound areas. In addition to wound area, wound healing was evaluated daily by observing wound colour. […]

PGE receptors = settings: cited from earlier work
[2] = biological target: T1, 15-hydroxy prostaglandin dehydrogenase (Homo sapiens, UniProt P15428); settings: cited from earlier work
T1 sequence (P15428 1-266): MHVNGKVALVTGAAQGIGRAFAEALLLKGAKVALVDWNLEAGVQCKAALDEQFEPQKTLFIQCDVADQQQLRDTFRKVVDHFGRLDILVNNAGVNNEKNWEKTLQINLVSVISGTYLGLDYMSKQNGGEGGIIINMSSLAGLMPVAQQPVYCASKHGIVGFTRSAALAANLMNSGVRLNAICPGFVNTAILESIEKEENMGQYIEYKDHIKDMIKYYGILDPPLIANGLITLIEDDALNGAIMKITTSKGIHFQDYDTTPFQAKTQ

ML1 cells = assay: ELISA for measuring cytokine release; format: cell-based, human; settings: monocyte
Protocol: Medium was removed from cells and analysed by ELISA. A monoclonal capture antibody was coated onto 96 well plates and culture medium was added each well. A standard curve was created with recombinant protein. After incubation and washing, a biotin-labelled monoclonal antibody was added. Following further incubation and washing, peroxidase-labelled streptavidin was added. After washing, a tetramethyl benzidine substrate was added and colour developed in proportion to the concentration of the cytokine in the original sample/standard. Colour was read using a plate photometer (Labsystems, Multiskan).
Paired antibodies and recombinant standards for CD14, CXCL8 (IL-8), and CCL2 (MCP-1) were obtained from R&D Systems Ltd, Abingdon UK and antibodies for IL-10 were obtained from Pharmingen (BD Bioscience, Erembodegem, Belgium), as shown below in Table 1.

[3] = Day 3 post surgery, PGE analog 400 μg/kg and/or GMCSF 25 μg/kg per site under the wound bed
[4] = Day 7 post surgery, PGE analog 400 μg/kg and/or GMCSF 25 μg/kg per site
[5] = Day 10 post surgery, PGE analog 400 μg/kg and/or GMCSF 25 μg/kg per site

16,16-dimethyl PGE [PGE analog]
Difference in wound area relative to control ([1]; Day 3): −52.21 | Mean wound area [1, 3]: 387.5 mm^2 | Difference in wound area relative to control ([1]; Day 7): −11.29 | Mean wound area [1, 4]: 255.4 mm^2 | Difference in wound area relative to control ([1]; Day 10): −9.185 | Mean wound area [1, 5]: 135.1 mm^2 | Wound area relative to control (significance, in words) [1]: No significant difference | Wound colour observations relative to control [1]: more consistent brown scores relative to the control treatment | Consistent brown wound colour scores [1]: 2 | Activation of PGE receptors (PGE receptors): activate all known PGE receptors | Resistance to the main catabolic enzyme 15-hydroxy prostaglandin dehydrogenase [2]: resistant

COc1ccc(C2CNC(=O)C2)cc1OC1CCCC1 (stereo not drawn) [rolipram]
IL-8 release induced by PGE and GMCSF (ML1 cells): enhance IL-8 release

GMCSF
Difference in wound area relative to control ([1]; Day 3): −15.50 | Mean wound area [1, 3]: 424.2 mm^2 | Difference in wound area relative to control ([1]; Day 7): −18.63 | Mean wound area [1, 4]: 248.0 mm^2 | Difference in wound area relative to control ([1]; Day 10): 8.761 | Mean wound area [1, 5]: 153.0 mm^2 | Wound area relative to control (significance, in words) [1]: No significant difference | Wound colour observations relative to control [1]: more consistent brown scores relative to the control treatment | Consistent brown wound colour scores [1]: 3
